Source: EP4570800A1, “CRYSTAL FORM OF PYRIDINOPYRIMIDINONE COMPOUND, ACID SALT THEREOF, CRYSTAL FORM OF ACID SALT THEREOF, AND USE” (Wuhan Humanwell Innovative Drug Research and Development …, priority 2022, dated 2024)

Target: T1, KRAS G12C::SOS1 (Homo sapiens, UniProt Q07889)
T1 sequence (Q07889 564-1049 limits assumed): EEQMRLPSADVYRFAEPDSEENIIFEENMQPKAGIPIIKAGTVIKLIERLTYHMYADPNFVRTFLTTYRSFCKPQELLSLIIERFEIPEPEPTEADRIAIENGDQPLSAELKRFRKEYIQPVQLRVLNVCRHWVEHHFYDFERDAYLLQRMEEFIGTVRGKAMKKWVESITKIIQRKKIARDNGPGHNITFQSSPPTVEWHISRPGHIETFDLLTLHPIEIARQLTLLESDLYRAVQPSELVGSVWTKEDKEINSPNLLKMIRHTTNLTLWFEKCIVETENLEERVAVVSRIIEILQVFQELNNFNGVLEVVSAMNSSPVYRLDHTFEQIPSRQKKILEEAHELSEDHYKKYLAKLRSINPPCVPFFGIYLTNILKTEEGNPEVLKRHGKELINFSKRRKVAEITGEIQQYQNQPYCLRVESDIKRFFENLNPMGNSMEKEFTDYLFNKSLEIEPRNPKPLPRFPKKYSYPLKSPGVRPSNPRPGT
Assay: Inhibition of KRAS G12C::SOS1 binding (anti-6his-Tb / anti-GST-XL665 fluorescence ratio)
Details: GST-KRAS G12C and His-SOS1

Compound Cc1nc(N[C@H](C)c2cccc(S(F)(F)(F)(F)F)c2)c2cn(C3(CF)CC3)c(=O)cc2n1 [Compound of formula I, (R)-6-(1-(fluoromethyl)cyclopropyl)-2-methyl-4-((1-(3-(pentafluorosulfanyl)phenyl)ethyl)amino)pyrido[4,3-d]pyrimidin-7(6H)-one] has an IC50 of 3.94 nM.
